This is an account of results in patent US7807624B2, “Methods and compositions for promoting attachment of cells of endothelial cell lineage to medical devices” (Affinergy, Inc., priority 2006, dated 2010).

Where a SMILES comes first, the peptide text is derived from it.

Assay [1] has as its system cells of endothelial cell lineage.
Description: In this illustrative example, cells of endothelial cell lineage used as target cells for the selection and screening process were human adipose-derived stem cells (“ADAS cells”). […] Fibroblasts (16 Lu fibroblast cell line) were used as non-target cells in the selection and screening process.
These peptides were tested in a variety of assay formats for binding specificity against a panel of cells and cell lines to compare binding to cells of endothelial cell lineage (e.g., human umbilical vein endothelial cells, human coronary artery endothelial cells, porcine coronary artery endothelial cells, and human endothelial progenitor cells) versus binding to cells of an origin other than endothelial cell lineage (e.g., human artery smooth muscle cells, porcine artery smooth muscle cells, platelets, and other mammalian cell lines).
Assay [2] is described as follows: Phage display selection and ELISA-type peptide binding to teflon. The source says: (§1) For example, a variety of different phage display libraries were screened for peptides that bind to a selected target substrate (e.g., a substrate selected to find a binding domain useful in the present invention). The substrate was either bound to or placed in (depending on the selected substrate) the wells of a 96 well microtiter plate. Nonspecific binding sites on the well surface of the polystyrene microtiter plate were blocked with a buffer containing 1% bovine serum albumin after overnight incubation at 4° C. The wells were then washed 5 times with a buffer containing phosphate buffered saline with Tween™ 20 (“PBS-T”). […] To detect phage that specifically bind to the selected substrate, enzyme-linked immunosorbent (ELISA-type) assays were performed using an anti-phage antibody conjugated to a detector molecule, followed by the detection and quantitation of the amount of detector molecule bound in the assay.
(§2) Relative binding strengths of the peptides were determined by testing serial dilutions of the peptide for binding to the selected substrate (as compared to a substrate used as a negative control; i.e. a substrate other than the selected substrate). Plotting the absorbance observed across the concentration range for each peptide sequence yielded a binding curve and rough dissociation constant (“KD”) of the peptides to its target substrate. […]
(In general: An ELISA detects its analyte on a solid surface through an enzyme-linked reagent.)

Assay [3] can be described thus: Phage display selection and ELISA-type peptide binding to polystyrene.
Source text: For example, a variety of different phage display libraries were screened for peptides that bind to a selected target substrate (e.g., a substrate selected to find a binding domain useful in the present invention). The substrate was either bound to or placed in (depending on the selected substrate) the wells of a 96 well microtiter plate. Nonspecific binding sites on the well surface of the polystyrene microtiter plate were blocked with a buffer containing 1% bovine serum albumin after overnight incubation at 4° C. The wells were then washed 5 times with a buffer containing phosphate buffered saline with Tween™ 20 (“PBS-T”). Each library was diluted in PBS-T and added at a concentration of 10^10 pfu/ml in a total volume of 100 μl. After 3 hour of incubation at room temperature with shaking at 50 rpm, unbound phage were removed by multiple washes with PBS-T. Bound phage were recovered by denaturation with 0.1 M glycine buffer, pH2.2. The eluted phage were neutralized with phosphate buffer, and then added to E. coli cells in growth media. The cell and phage-containing media was cultured by incubation overnight at 37° C. in a shaker at 200 rpm. Phage-containing supernatant was harvested from the culture after centrifuging the culture. […] To detect phage that specifically bind to the selected substrate, enzyme-linked immunosorbent (ELISA-type) assays were performed using an anti-phage antibody conjugated to a detector molecule, followed by the detection and quantitation of the amount of detector molecule bound in the assay.
as §2

The nature of assay [4]: Phage display selection and ELISA-type peptide binding to polyurethane.
Source text: as §1, §2

Assay [5] can be described thus: Peptide binding to titanium beads (phage selection, ELISA-type dilution series). On the procedure:
As a specific illustrative example, titanium (in percent: Ti6Al4V) beads of approximately 5/32 of an inch diameter were washed with 70% ethanol, 40% nitric acid, distilled water, 70% ethanol, and acetone to remove any surface contaminants. One titanium bead was placed per well of 96-well polypropylene plate. Nonspecific binding sites on the titanium and the surface of the polypropylene were blocked with 1% bovine serum albumin (BSA) in PBS. The plate was incubated for 1 hour at room temperature with shaking at 50 rpm. The wells were then washed 5 times with 300 μl of PBS. Each library was diluted in PBS+1% BSA and was added at a concentration of 10^10 pfu/ml in a total volume of 250 μl. […]
as §2
As a specific example, titanium beads were blocked with 1% BSA in PBS for 30 minutes at room temperature. […] Beads were washed two times with PBS-T. PNPP (p-nitrophenyl phosphate) was used to develop the assay, and the absorbance was recorded at 405 nm. […]

The term EC50 denotes the midpoint of the concentration-response curve. In assay [1], `CC(C)C[C@H](NC(=O)[C@H](C)NC(=O)[C@H](C)NC(=O)[C@H](CO)NC(=O)[C@@H]1CCCN1C(=O)[C@H](CCCNC(=N)N)NC(=O)[C@H](CC(C)C)NC(=O)[C@H](CC(C)C)NC(=O)[C@H](CO)NC(=O)[C@@H](NC(=O)[C@H](Cc1c[nH]cn1)NC(=O)[C@H](CCC(N)=O)NC(=O)[C@H](CS)NC(=O)[C@H](CO)NC(=O)[C@H](CO)NC(=O)[C@@H](N)CO)C(C)C)C(=O)NCC(=O)N1CCC[C@H]1C(=O)N[C@@H](CC(=O)O)C(=O)N[C@@H](CC(N)=O)C(=O)N[C@@H](CS)C(=O)N[C@@H](CS)C(=O)N[C@@H](CO)C(=O)N[C@@H](CCCNC(=N)N)C(=O)NCC(=O)N[C@@H](CO)C(=O)N[C@@H](CO)C(=O)NCC(=O)N[C@@H](CCCCN)C(=O)O` [SEQ ID NO:95] (H-SSSCQHVSLLRPSAALGPDNCCSRGSSGK-OH; N-terminus and C-terminus assumed) displayed a half-maximal effective concentration (EC50) of less than 10 µM. The same measure, in the same setting: for `CC(C)C[C@H](NC(=O)[C@H](C)NC(=O)[C@H](C)NC(=O)[C@H](CO)NC(=O)[C@@H]1CCCN1C(=O)[C@H](CCCNC(=N)N)NC(=O)[C@H](CC(C)C)NC(=O)[C@H](CC(C)C)NC(=O)[C@H](CO)NC(=O)[C@@H](NC(=O)[C@H](Cc1c[nH]cn1)NC(=O)[C@H](CCC(N)=O)NC(=O)[C@H](CS)NC(=O)[C@H](CO)NC(=O)[C@H](CO)NC(=O)[C@@H](N)CO)C(C)C)C(=O)NCC(=O)N1CCC[C@H]1C(=O)N[C@@H](CC(=O)O)C(=O)N[C@@H](CC(N)=O)C(=O)N[C@@H](CS)C(=O)N[C@@H](CO)C(=O)N[C@@H](CCCNC(=N)N)C(=O)NCC(=O)N[C@@H](CO)C(=O)N[C@@H](CO)C(=O)NCC(=O)N[C@@H](CCCCN)C(=O)O` [SEQ ID NO:96] (H-SSSCQHVSLLRPSAALGPDNCSRGSSGK-OH; N-terminus and C-terminus assumed) the value was less than 10 µM. Consider CIKYPFLYCCLLSLFLFS [SEQ ID NO:56], for which, in assay [2], the “binding specificity for teflon” value is “specifically bind to teflon”. On to CWSRFRLFMLFCMFYLVS [SEQ ID NO:55], for which the “binding specificity for teflon” value in assay [2] was “specifically bind to teflon”. Regarding FFGFDVYDMSNAL [SEQ ID NO:19], in assay [3], the “binding specificity for polystyrene” value is given as “substantially retain binding specificity for polystyrene”. Still for that read-out and setting: for FFPSSWYSHLGVL [SEQ ID NO:18] the value was “substantially retain binding specificity for polystyrene”; for FSYSVSYAHPEGL [SEQ ID NO:21], “substantially retain binding specificity for polystyrene”. In the case of “SCYVNGHNSVWWVFWGVS (SCYVNGHNSVWVVVFWGVS) [SEQ ID NO:23]”, in assay [4], the “binding specificity for polyurethane” value is listed as “specifically binds to polyurethane”. Consider SDKSHKHWYSYESKYGGS [SEQ ID NO:74], for which the “binding specificity for titanium” value in assay [5] was “substantially retained binding specificity”. The same molecule gave a reduction in binding in assay [5] (as compared to SEQ ID NO:73 (two cysteines substituted by serine)) of 10 fold.
